How the values were obtained:
A549 cells = assay: Alamar Blue proliferation assay, lung cancer cells; format: cell-based, human; details: hsa-miR-34a 30 nM, lipid transfection, 72 hours, normalized to NC (100%)
Source text: (§1) The inventors assessed the therapeutic effect of hsa-miR-34a for lung cancer by using eight individual lung cancer cell lines. To measure cellular proliferation of lung cancer cells, the following non-small cell lung cancer (NSCLC) cells were used: cells derived from lung adenocarcinoma (A549, H522, Calu-3, HCC2935), cells derived from lung squamous cell carcinoma (H226), cell derived from lung adenosquamous cell carcinoma (H596), cells derived from lung bronchioalveolar carcinoma (H1650), and cells derived from lung large cell carcinoma (H460). Synthetic hsa-miR-34a (Pre-miR™-hsa-miR-34a, Ambion cat. no. AM17100) or negative control (NC) miRNA (Pre-miR™ microRNA Precursor Molecule-Negative Control #2; Ambion cat. no. AM17111) was delivered via lipid-based transfection into A549, H522, H596, Calu-3, HCC2935, H1650, H460 cells and via electroporation into H226 cells.
(§2) Lipid-based reverse transfections were carried out in triplicate according to a published protocol (Ovcharenko et al., 2005) and the following parameters: cells (5,000-12,000 per 96 well), 0.1-0.2 μl Lipofectamine™ 2000 (cat. no. 11668-019, Invitrogen Corp., Carlsbad, Calif., USA) in 20 μl OptiMEM (Invitrogen), 30 nM final concentration of miRNA in 100 μl. Electroporation of H226 cells was carried out using the BioRad Gene Pulser Xcell™ instrument (BioRad Laboratories Inc., Hercules, Calif., USA) with the following settings: 5×10^6 cells with 5 μg miRNA in 200 μl OptiMEM (1.6 μM miRNA), square wave pulse at 250 V for 5 ms. Electroporated H226 cells were seeded at 7,000 cells per 96-well in a total volume of 100 μl. All cells except for Calu-3 cells were harvested 72 hours post transfection or electroporation for assessment of cellular proliferation. Calu-3 cells were harvested 10 days post transfection. Proliferation assays were performed using Alamar Blue (Invitrogen) following the manufacturer's instructions. As a control for inhibition of cellular proliferation, siRNA against the motor protein kinesin 11, also known as Eg5, was used. Eg5 is essential for cellular survival of most eukaryotic cells and a lack thereof leads to reduced cell proliferation and cell death (Weil et al., 2002). siEg5 was used in lipid-based transfection following the same experimental parameters that apply to miRNA. The inventors also used a DNA topoisomerase II inhibitor, etoposide, at a final concentration of 10 μM and 50 μM as an internal standard for the potency of miRNAs. Etoposide is an FDA-approved DNA topoisomerase II inhibitor in the treatment of lung cancer. […] Percent (%) proliferation values from the Alamar Blue assay were normalized to values from cells treated with negative control miRNA. Percent proliferation of hsa-miR-34a treated cells relative to cells treated with negative control miRNA (100%) is shown in Table 7 and in FIG. 1.

Calu-3 cells = assay: Alamar Blue proliferation assay, lung cancer cells; format: cell-based, human; details: 10 days post transfection
Source text: as §1, §2

H1650 cells = assay: Alamar Blue proliferation assay, lung cancer cells; format: cell-based, human; details: hsa-miR-34a 30 nM, lipid transfection, 72 hours, normalized to NC (100%)
Source text: as §1, §2

H460 cells = assay: Alamar Blue proliferation assay, lung cancer cells; format: cell-based, human; details: hsa-miR-34a 30 nM, lipid transfection, 72 hours, normalized to NC (100%)
Source text: as §1, §2

H522 cells = assay: Alamar Blue proliferation assay, lung cancer cells; format: cell-based, human; details: hsa-miR-34a 30 nM, lipid transfection, 72 hours, normalized to NC (100%)
Source text: as §1, §2

H596 cells = assay: Alamar Blue proliferation assay, lung cancer cells; format: cell-based, human; details: hsa-miR-34a 30 nM, lipid transfection, 72 hours, normalized to NC (100%)
Source text: as §1, §2

HCC2935 cells = assay: Alamar Blue proliferation assay, lung cancer cells; format: cell-based, human; details: hsa-miR-34a 30 nM, lipid transfection, 72 hours, normalized to NC (100%)
Source text: as §1, §2

[1] = tested on: H460 non-small cell lung cancer xenografts; assay: Tumor growth of human lung cancer xenografts, intratumoral injection; format: in vivo, NOD/SCID mice
Source text: The inventors assessed the growth-inhibitory activity of hsa-miR-34a in human lung cancer xenografts grown in immunodeficient mice. Each 3×10^6 human H460 non-small cell lung cancer cells were mixed with BD Matrigel™, (BD Biosciences; San Jose, Calif., USA; cat. no. 356237) in a 1:1 ratio and subcutaneously injected into the lower back of 23 NOD/SCID mice (Charles River Laboratories, Inc.; Wilmington, Mass., USA). Once animals developed palpable tumors (day 11 post xenograft implantation), a group of six animals received intratumoral injections of each 6.25 μg hsa-miR-34a (Dharmacon, Lafayette, Colo.) formulated with the lipid-based siPORT™ amine delivery agent (Ambion, Austin, Tex.; cat. no. AM4502) on days 11, 14, and 17. A control group of six animals received intratumoral injections of each 6.25 μg negative control miRNA (NC; Dharmacon, Lafayette, Colo.), following the same injection schedule that was used for hsa-miR-34a. Given an average mouse weight of 20 g, this dose equals 0.3125 mg/kg. […] Caliper measurements were taken every 1-2 days, and tumor volumes were calculated using the formula, Volume=length×width×width/2, in which the length is greater than the width. Average tumor volumes, standard deviations and p-values were calculated and plotted over time (FIG. 4).

HeLa = details: cited from earlier work

With “hsa-miR-34a: synthetic miRNA; mature sequence UGGCAGUGUCUUAGCUGGUUGUU (MIMAT0000255; SEQ ID NO:1) (synthetic miRNA, chemistry not given here)” the “% proliferation” value (A549 cells) was 75.95%, the “% proliferation” value (Calu-3 cells; Calu-3, hsa-miR-34a 30 nM, lipid transfection, normalized to NC (100%)) was 28.51% and the reduction of proliferation (Calu-3 cells; Calu-3 cells, 30 nM, relative to negative control miRNA) was 71.49%. For the same substance, the “% proliferation” value (H1650 cells) was 78.37%, the “% proliferation” value (H460 cells) was 77.46% and the “% proliferation” value (H522 cells) was 94.41%. For the same substance, the “% proliferation” value (H596 cells) was 73.19%, the “% proliferation” value (HCC2935 cells) was 80.19% and the average tumor volume ([1]; day 19, 6.25 μg intratumoral in siPORT amine on days 11, 14, 17, n=6) was 196 mm^3. The “growth of established H460 lung tumors” value ([1]; three intratumoral doses) was “robustly inhibited growth” and the “programmed cell death (apoptosis)” value (HeLa) was “decreased”.

Source: patent publication US20090227533A1, “miR-34 Regulated Genes and Pathways as Targets for Therapeutic Intervention” (priority 2007, published 2009)
